Assay results published in patent publication US20070207191A1, “PHARMACEUTICAL COMPOSITIONS AND METHODS TO ACHIEVE AND MAINTAIN A TARGETED AND STABLE COPPER STATUS AND PREVENT AND TREAT COPPER-RELATED CENTRAL NERVOUS SYSTEM DISEASES” (priority 2006, published 2007).
“Also recorded” adds a separate entry of the source.

What was measured:
[1] = Dissolution of ATTM crystals of different size in acidic buffer (pH 2); format: physicochemical
Experimental: After 1 hour of incubation in acidic buffer, more than 50% of ATTM was found.
• 1. ATTM purchased from Sigma-Aldrich was sieved using a 1700 micron screen. […] ATTM crystals were ground so that no crystals were larger than 50 microns. These will be referred to as small crystals. • 3. 100 mg of each type of crystal was weighed and added to separate 1.7 ml plastic centrifuge tubes. • 4. 1 ml of buffer pH 2 was added to each tube without mixing. • 5. After 1 hour, each tube was centrifuged at 14,000 rpms for 1 minute. • 6. The supernatant was removed and analyzed for ATTM content. • 7. To the pellet of each tube was added 1 ml of phosphate buffer pH 7.4 • 8. Each solution was vortex-mixed. • 9. Each tube was centrifuged at 14,000 rpms for 1 min. • 10. The supernatant from each tube was analyzed for ATTM content. Analysis: • 1. A 1 to 100 dilution of all supernatants were made in phosphate buffer pH 7.4. • 2. 2 ml of each diluted sample were added to plastic cuvettes. • 3. Absorbance was measured at 467 nm. • 4. The extinction coefficients (EC) of ATTM for each sample were calculated.
Observations: • 1. When acid buffer was added to small crystals of ATTM, the solution turned immediately black and a sulfur odor could be detected. • 2. […] This was observed by the 1 hour incubation time point. • 3. When acid buffer was added to large crystals of ATTM, a small amount of black coloration leached from the crystal. […] Conclusions: • 1. […] In acid, un-dissolved ATTM from large crystals can be liberated with a secondary dissolution in neutral media. • 5.

[2] = Example 13: dissolution of ATTM capsule in artificial gastric fluid; format: physicochemical
Experimental: FIG. 1 is a plot of the dissolution profile of an ammonium tetrathromolybdate (ATTM) capsule in gastric juice in accordance with Example 13 hereof; and
We performed a dissolution experiment using a capsule containing 20 mg of ammonium tetrathiomolybdate plus excipient. ATTM crystals used were 500 microns or smaller. […] After, 3 hours of dissolution, black particles released from the capsule were found suspended in solution. After neutralization of the gastric media to pH 9, these black particles disappeared resulting in about 10% of ATTM being recovered.
• 1. […] Conclusion: ˜90% of ATTM is destroyed in the stomach. Method: Material Studied • 1. Study was performed on R&D Pipex formulated capsule of ATTM. • 2. The ATTM was milled through a 500 micron sieve. • 3. The capsule contained ˜20 mg of ATTM and 180 mg of excipient. Dissolution Conditions • 1. Media: 1 liter of UPS artificial gastric fluid pH 2 • 2. Temp: 22° C. • 3. Paddle RPMs: 100 • 4. Dissolution time: 3 hours Procedure • 1. A #2 QualiCaps capsule available from Shionogi Europe, B.V. was mechanically dropped into media at time zero • 2. 1 ml of media was then collected at 1, 2, 4, 8, 16, 30, 45, 75, 120 and 180 min • 3. Following 3 hours of dissolution, the pH was raised to 9 using NaOH pellets. • 4. The media was paddled for 1 hour. • 5. After 1 hour a sample was collect for analysis Analysis • 1. 400 ul of collected media was diluted to 2 ml with phosphate buffer, pH 7 • 2. The solution was placed in a cuvette and scanned between 260 and 600 nm. • 3. Absorbance was measured at 367 nm. • 4. The extinction coefficient was calculated using Beer's law. • 5. The extinction coefficient of a reference sample in a capsule is 13500 cm^−1 M^−1 Conclusion: • 1. Any ATTM that dissolves in media at pH 2 is immediately destroyed. • 2. Some of the ATTM floated in the media as black specks following 3 hours of dissolution. • 3. After three hours when the pH of the solution was raised to pH 9, the color of the solution changed to an orange color. • 4. This presumably is stable ATTM that has dissolved. • 5. […]

[3] = Example 14: stability of ATTM capsules after eight weeks; format: physicochemical; conditions: stored at RT and ambient RH
[4] = infants at one month of age, supplemented 80 μg Cu/kg daily for 15 days; cited from earlier work
[5] = test system: free copper in the CNS; conditions: in vivo
[6] = test system: neural tube defects; conditions: adequate intake by mothers prior to pregnancy; cited from earlier work
[7] = Storage stability of tetrathiomolybdate under typical atmospheric temperature and humidity; format: physicochemical; conditions: within three months
Text: Tetrathiohiomolydates, under typical atmospheric condition of temperature and humidity are unstable and the active ingredient can undergo oxidation to molybdenum sulfoxide. Molydbdenum sulfoxide is not active as a copper binding agent and therapeutic agent for reduing body copper levels in humans. Tetrathiomolybdates can be expected to lose approximately 10% of its potency within three months if stored under such conditions.

[8] = Example 5: tetrathiomolybdate crystals and capsule in simulated stomach acid; format: physicochemical
Experimental: Large (>1000 microns) and small (<50 microns) dark orange crystals of tetrathiomolybdate are placed in a solution of a commercially available simulated stomach acid. […] The dissolution properties of the large verses small crystals are clearly distinct. To further examine the properties of a methylcellulose capsule containing 20 mg of tetrathiomolybdate and 180 mg of excipient containing a heterogenous size range (200-800 microns) of tetrathiomolybdate crystals was examined in a dissolution chamber initially containing simulated stomach acid. The gelatin capsule dissolved within 15 minutes. Tetrathiothiomolybdate recovery was assessed by UV/Visible absorption periodically over 3 hours, a time consistent with the initiation of gastric emptying and the initial phase of postprandial absorption. […] At three hours the remaining gastric juice was made alkaline by adjusting the pH to 8-9, the solution turned orange to red and was assessed by UV/V is spectroscopy to determine the recover of tetrathiothiomolybdate, which was approximately 7% of the amount in the capsule.
When the same experiment is performed with small crystals, much less than 7% of parent compound is recovered, while when the experiment is performed with large crystals much greater than 7% of parent compound is recovered.

[9] = Example 6: colour stability of crushed versus lyophilized tetrathiomolybdate; format: physicochemical
Text: Tetrathiothiomolybdate crystals are either crushed to a powder, that is initially orange in color, or placed in water to dissolve yielding a bright orange solution, which is filtered and lyophilized, which results in a dry powder orange in color.

[10] = test system: intestinal absorption of copper; conditions: cited from earlier work
[11] = current formulations; cited from earlier work
[12] = oral dose of Cu^64 as copper acetate, humans; cited from earlier work
[13] = crystals 1700 microns or greater
[14] = pellet taken up in phosphate buffer pH 7.4
[15] = pellet taken up in phosphate buffer pH 7.4, 1 to 100 dilution
[16] = supernatant after 1 hour in buffer pH 2
[17] = supernatant after 1 hour in buffer pH 2, 1 to 100 dilution
[18] = 50 mg immediate release capsules three times per day away from meals and beverages, Wilson's disease patients

Compound: [NH4+].[NH4+].[SH-].[SH-].[S]=[Mo]=[S] [ATTM, ammonium tetrathiomolybdate]
- survival of dissolved ATTM in acid media [1]: does not survive in acid media
- ATTM found after 1 hour of incubation in acidic buffer ([1]; crystals 50 microns or less): no ATTM was found
- dissolution behaviour in acidic buffer (pH 2) ([1]; crystals 50 microns or less): dissolved rapidly; also recorded: dissolves in Acid media but soon forms an insoluble precipitate
- ATTM found after 1 hour of incubation in acidic buffer [1, 13]: more than 50%
- dissolution behaviour in acidic buffer (pH 2) [1, 13]: dissolved slowly; also recorded: forms a black coating which seems to resist dissolution
- ATTM recovered after neutralization of the gastric media to pH 9 ([2]; after 3 hours of dissolution): about 10%
- ATTM destroyed ([2]; artificial gastric fluid over three hours): ~90%
- ATTM recovered dissolved in the gastric dissolution medium ([2]; artificial gastric fluid pH 2, 22° C., up to 3 hours, crystals 500 microns or smaller): No ATTM was recovered; also recorded: No ATTM was found dissolved
- stability after 8-Weeks [3]: completely stable

Compound: [NH4+].[NH4+].[SH-].[SH-].[S]=[Mo]=[S] [Large Crystal, ammonium tetrathiomolybdate]
- Extinction Coefficient [1, 14]: 7,000
- Absorbance at 467 [1, 15]: 0.310
- Extinction Coefficient [1, 16]: 0
- Absorbance at 467 [1, 17]: 0

Compound: [NH4+].[NH4+].[SH-].[SH-].[S]=[Mo]=[S] [Small Crystal, ammonium tetrathiomolybdate]
- Extinction Coefficient [1, 14]: 0
- Absorbance at 467 [1, 15]: 0
- Extinction Coefficient [1, 16]: 0
- Absorbance at 467 [1, 17]: 0

Compound: O=S(=O)([O-])[O-].[Cu+2] [copper sulfate]
- Mean (+SD) copper absorption [4]: 74.8+15.2%

Compound: CC(C)(S)[C@@H](N)C(=O)O [d-pencillamine, d-penicillamine]
- levels of free copper in the CNS [5]: increase the levels of free copper in the CNS

Compound: Nc1nc2ncc(CNc3ccc(C(=O)N[C@@H](CCC(=O)O)C(=O)O)cc3)nc2c(=O)[nH]1 [folic acid]
- reduction of the incidence of NTDs [6]: up to 70%

Compound: [SH-].[SH-].[S]=[Mo]=[S] [tetrathiomolybdate]
- loss of potency [7]: approximately 10%
- detection in simulated gastric samples, removed and neutralized ([8]; any time point over three hours, UV/Visible absorption): not detectable
- capsule dissolution time ([8]; capsule with 20 mg tetrathiomolybdate and 180 mg excipient, simulated stomach acid): ≤ 15 min
- behaviour in simulated stomach acid ([8]; large (>1000 microns) crystals): remain relatively intact
- behaviour in simulated stomach acid ([8]; small (<50 microns) crystals): form a disaggregate cloudy black solution
- colour stability ([9]; crushed crystals, nitrogen overlay, room temperature, closed tube): slowly turn black within a few day
- colour stability ([9]; lyophilized dry powder, similar conditions): remains orange for over a month
- colour stability ([9]; protected from atmosphere and moisture by covering with mineral): remains orange (i.e. not oxidized) for over a month
- blocking of copper absorption compared with zinc ([10]; human, in vivo): more effective blocker of copper absorption than zinc

Compound: NCCNCCNCCN [trientine]
- levels of free copper in the CNS [5]: increase the levels of free copper in the CNS

Compound: CC(=O)[O-].CC(=O)[O-].[Zn+2] [zinc acetate]
- mean Cu^64 uptake [10, 18]: 0.82 % of the administered dose
- mean copper balance [10, 18]: -0.44 mg/day
- control of copper ([10]; once daily dosing of immediate release capsules): does not provide adequate control of copper
- stomach irritability [11]: ~10 % of patients

Compound: [Zn] [zinc]
- copper balance induced, average ([10]; Wilson's patients, from the two week point): −0.35 mg daily
- time to achieve intestinal metallothionein induction and a negative copper balance ([10]; Wilson's patients): approximately two
- time to bring urine copper and nonceruloplasmin plasma copper down to subtoxic levels ([10]; zinc therapy): six

Compound: copper acetate
- oral dose absorbed from the gastrointestinal tract [12]: about 65%
- oral dose absorbed from the gastrointestinal tract, range [12]: 15-97%
